In paper PMC10342533, “Novel Tetrazole Derivatives Targeting Tubulin Endowed with Antiproliferative Activity against Glioblastoma Cells” (International Journal of Molecular Sciences, 2023):
Values joined by “and” are separate entries in the source; they are usually repeats but may differ in a detail not shown here. Equal entries are not always repeated.

Columns and labels:
[1] = tested on: microtubule network of MCF7 cells; experiment: Immunofluorescence confocal microscopy of microtubule network, MCF7; type: cell-based, human; settings: MCF7, 24 h, 100 nM, α-tubulin immunofluorescence
Procedure: (§1) To elucidate if the interaction of the compounds with tubulin inferred from the in vitro TPI experiments has consequences on cellular microtubules, we studied the effect of representative compounds on the microtubule network of HeLa, MCF7, and U87 MG cells 24 h after treatment via the use of immunofluorescence confocal microscopy through α-tubulin and nuclei labeling.
(§2) HeLa, MCF7, and U87 MG cells (8·10^4 cells/mL) were grown on 0.01% poly-L-lysine pre-coated square glass coverslips (22 mm^2), deposited on 6-well plates (1 coverslip/well), and incubated in complete DMEM medium (see above) at 37 °C and 5% CO2 atmosphere for 24 h. Then, the cells were incubated for 24 h in the presence or absence (negative controls) of selected compounds (10, 12, or 14) at 100 nM. After drug treatment incubation, medium was removed, and coverslips were washed three times with PBS, fixed with 4% formaldehyde in PBS for 10 min, permeabilized with 0.5% Triton X-100, (Sigma-Aldrich, St. Louis, MO, USA) in PBS for 90 s at 4 °C, blocked with 10% BSA in PBS for 30 min, and washed with PBS four times. The coverslips were incubated for 1 h with anti-α-tubulin mouse monoclonal antibody (Sigma-Aldrich, St. Louis, MO, USA), diluted 1:200 in PBS containing 3% BSA, washed four times with PBS, and then incubated in darkness with the fluorescent secondary antibody Alexa Fluor 488 goat anti-mouse IgG (Molecular Probes, Invitrogen, Eugenen, OR, USA) and diluted 1:400 in PBS containing 1% BSA for 1.5 h. The coverslips were washed four times with PBS, and a drop of ProLong™ Gold Antifade Mountant containing DAPI (ThermoFisher, Waltham, MA, USA) was added for cell nuclei staining. The samples were analyzed via confocal microscopy, which was performed by using a LEICA SP5 microscope DMI-6000V model coupled to a LEICA LAS AF software computer.

[2] = tested on: HeLa cells; experiment: Cell cycle analysis by flow cytometry (PI), HeLa; type: cell-based, human; settings: 100 nM
Procedure: (§3) To assess how tubulin polymerization inhibition and the effects on the microtubule network affect the cell cycle, flow cytometry experiments were performed on HeLa, MCF7, and U87 MG cells 24, 48, and 72 h after treatments with compounds 10, 12, and 14 at 100 nM using propidium iodide (PI) for DNA staining and untreated cells as the negative control.
(§4) HeLa, MCF7, or U87 MG cells were seeded in 6-well plates (8·10^4 cells/mL, 2 mL/well) and incubated in complete DMEM Medium (see above) at 37 °C and 5% CO2 atmosphere for 24 h. Then, the cells were treated with selected compounds (10, 12, or 14) at 100 nM, and untreated cells were used as negative controls. Cells were collected 24, 48, or 72 h following treatment and fixed overnight in ethanol/PBS (7:3) at 4 °C. After two washes with PBS, cells were suspended in PBS and incubated in darkness overnight with 0.2 mg/mL RNase A (Sigma-Aldrich, St. Louis, MO, USA), 50 µg/mL propidium iodide (Sigma-Aldrich, St. Louis, MO, USA), and Triton 10x at room temperature. A BD Accuri™ C6 Plus Flow Cytometer (BD Biosciences, Franklin Lakes, NJ, USA) cytometer was used to analyze the samples, and BD Accuri™ C6 Software (version 1.0.264.21) was used for data analysis.

[3] = tested on: microtubule network of U87 MG cells; experiment: Immunofluorescence confocal microscopy of microtubule network, U87 MG; type: cell-based, human; settings: 24 h, 100 nM, α-tubulin immunofluorescence
Procedure: as §1, §2

[4] = tested on: MCF7 cells; experiment: Cell cycle analysis by flow cytometry (PI), MCF7; type: cell-based, human; settings: 100 nM
Procedure: as §3, §4

[5] = tested on: MCF7 (breast adenocarcinoma); experiment: Cell growth inhibition, MTT assay, MCF7; type: cell-based; settings: Homo sapiens
Procedure: The ability of the synthesized compounds to inhibit the cell proliferation of human cancer cell lines was assayed by measuring cell viability through the use of the MTT method 72 h after treatment. For this purpose, representative cell lines of the most frequent kinds of cancer were selected, including the following: HeLa (cervix epithelioid carcinoma), MCF7 (breast adenocarcinoma), U87 MG (glioblastoma), T98G (temozolomide resistant glioblastoma), HepG2 (hepatocellular carcinoma), HCT8 (colorectal carcinoma), and HT-29 (colon adenocarcinoma).
The cell lines were obtained from ATTC (Manassas, VA, USA). […] The cells were periodically tested for Mycoplasma infection by using a MycoAlert kit (Lonza, Norwest, Australia), and only Mycoplasma-free cells were used in the experiments.
Then, every compound was added (10 µL/well) to a final concentration of 10 µM. Untreated cells were used as negative controls. The antiproliferative activity of compounds was measured 72 h after drug exposure through the MTT assay. […] For this purpose, compounds were used at different concentrations, ranging from 10^−10 to 10^−2 M. Measurements were performed in triplicate, and each experiment was repeated three times. The IC50 values were determined using Origin software (version 9.6, OriginLab, Washington, DC, USA).

[6] = tested on: U87 MG cells; experiment: Cell cycle analysis by flow cytometry (PI), U87 MG; type: cell-based, human; settings: 100 nM
Procedure: as §3, §4

Structure (SMILES)	effect on microtubule network [1]	G0/G1 population ([2]; 24 h) [% Cells]	G2/M population ([2]; 24 h) [% Cells]	S population ([2]; 24 h) [% Cells]	SubG0/G1 population ([2]; 24 h) [% Cells]	G0/G1 population ([2]; 48 h) [% Cells]	G2/M population ([2]; 48 h) [% Cells]	S population ([2]; 48 h) [% Cells]	SubG0/G1 population ([2]; 48 h) [% Cells]	G0/G1 population ([2]; 72 h) [% Cells]	G2/M population ([2]; 72 h) [% Cells]	S population ([2]; 72 h) [% Cells]	SubG0/G1 population ([2]; 72 h) [% Cells]	effect on microtubule network [3]	G0/G1 population ([4]; MCF7, 24 h) [% Cells]	G2/M population ([4]; MCF7, 24 h) [% Cells]	S population ([4]; MCF7, 24 h) [% Cells]	SubG0/G1 population ([4]; MCF7, 24 h) [% Cells]	G0/G1 population ([4]; MCF7, 48 h) [% Cells]	G2/M population ([4]; MCF7, 48 h) [% Cells]	also measured
Cn1cc(C=O)c2cc(-n3nnnc3-c3cc(Cl)nc(Cl)c3)ccc21 [Compound 12, 5-(5-(2,6-dichloropyridin-4-yl)-1H-tetrazol-1-yl)-1-methyl-1H-indole-3-carbaldehyde]	severe microtubule network disruption	20.0	57.8	4.6	17.8	18.2	40.8	7.8	32.5	15.3	34.0	5.6	45.4	severe microtubule network disruption	19.4	68.6	7.0	5.2	16.4	62.9	S population ([4]; MCF7, 48 h): 7.9 % Cells; SubG0/G1 population ([4]; MCF7, 48 h): 13.1 % Cells; G0/G1 population ([4]; MCF7, 72 h): 15.0 % Cells; G2/M population ([4]; MCF7, 72 h): 59.1 % Cells; S population ([4]; MCF7, 72 h): 10.8 % Cells; SubG0/G1 population ([4]; MCF7, 72 h): 15 % Cells and 15.5 % Cells; IC50 ([5]; 72 h after drug exposure): 37 nM; IC50 ([5]; mean ± SD, Table S1): 37.3 ± 0.2 nM; G0/G1 population ([6]; 24 h): 27.3 % Cells; G2/M population ([6]; 24 h): 37.8 % Cells; S population ([6]; 24 h): 9.6 % Cells; SubG0/G1 population ([6]; 24 h): 26.1 % Cells; G0/G1 population ([6]; 48 h): 11.9 % Cells; G2/M population ([6]; 48 h): 27.4 % Cells; S population ([6]; 48 h): 10.3 % Cells; SubG0/G1 population ([6]; 48 h): 51.1 % Cells; G0/G1 population ([6]; 72 h): 12.2 % Cells; G2/M population ([6]; 72 h): 10.0 % Cells; S population ([6]; 72 h): 7.8 % Cells
CSc1cc(-c2nnnn2-c2ccc3c(c2)c(C=O)cn3C)cc(Cl)n1 [Compound 14, 5-(5-(2-chloro-6-(methylsulfanyl)pyridin-4-yl)-1H-tetrazol-1-yl)-1-methyl-1H-indole-3-carbaldehyde]	severe microtubule network disruption	16.6	47.0	3.7	32.7	17.1	34.1	7.0	41.3	9.6	25.4	8.1	57.4	severe microtubule network disruption	22.7	66.0	5.9	5.2	16.8	58.4	S population ([4]; MCF7, 48 h): 6.9 % Cells; SubG0/G1 population ([4]; MCF7, 48 h): 17.9 % Cells; G0/G1 population ([4]; MCF7, 72 h): 19.1 % Cells; G2/M population ([4]; MCF7, 72 h): 38.7 % Cells; S population ([4]; MCF7, 72 h): 8.1 % Cells; SubG0/G1 population ([4]; MCF7, 72 h): 34 % Cells and 34.6 % Cells; IC50 ([5]; 72 h after drug exposure): 26 nM; IC50 ([5]; mean ± SD, Table S1): 26.2 ± 0.1 nM; G0/G1 population ([6]; 24 h): 23.7 % Cells; G2/M population ([6]; 24 h): 41.3 % Cells; S population ([6]; 24 h): 8.5 % Cells; SubG0/G1 population ([6]; 24 h): 27.2 % Cells; G0/G1 population ([6]; 48 h): 12.5 % Cells; G2/M population ([6]; 48 h): 32.1 % Cells; S population ([6]; 48 h): 10.6 % Cells; SubG0/G1 population ([6]; 48 h): 45.4 % Cells; G0/G1 population ([6]; 72 h): 11.1 % Cells; G2/M population ([6]; 72 h): 9.6 % Cells; S population ([6]; 72 h): 6.9 % Cells
CSc1cc(-c2nnnn2-c2ccc3c(ccn3C)c2)cc(Cl)n1 [Compound 10, 5-(5-(2-chloro-6-(methylsulfanyl)pyridin-4-yl)-1H-tetrazol-1-yl)-1-methyl-1H-indole]	severe microtubule network disruption	18.1	59.5	3.9	18.6	16.7	45.9	7.6	29.1	14.4	35.2	4.9	45.6	severe microtubule network disruption	22.5	65.8	3.9	7.7	16.9	58.1	S population ([4]; MCF7, 48 h): 4.6 % Cells; SubG0/G1 population ([4]; MCF7, 48 h): 20.4 % Cells; G0/G1 population ([4]; MCF7, 72 h): 13.7 % Cells; G2/M population ([4]; MCF7, 72 h): 54.8 % Cells; S population ([4]; MCF7, 72 h): 4.4 % Cells; SubG0/G1 population ([4]; MCF7, 72 h): 27 % Cells and 27.2 % Cells; IC50 ([5]; 72 h after drug exposure): 38 nM; IC50 ([5]; mean ± SD, Table S1): 38.4 ± 0.4 nM; G0/G1 population ([6]; 24 h): 21.1 % Cells; G2/M population ([6]; 24 h): 47.8 % Cells; S population ([6]; 24 h): 8.3 % Cells; SubG0/G1 population ([6]; 24 h): 23.5 % Cells; G0/G1 population ([6]; 48 h): 11.0 % Cells; G2/M population ([6]; 48 h): 31.6 % Cells; S population ([6]; 48 h): 9.0 % Cells; SubG0/G1 population ([6]; 48 h): 49.2 % Cells; G0/G1 population ([6]; 72 h): 10.5 % Cells; G2/M population ([6]; 72 h): 17.0 % Cells; S population ([6]; 72 h): 2.9 % Cells
